The values that follow come from US20210253572A1, “IMIDAZO[1,2-B]PYRIDAZINES AS TRK INHIBITORS” (BenevolentAl Bio Limited, priority 2018, published 2021).

Each structure is given as a SMILES string.

What all share (format): biochemical
One assay has as its target T1, TrkC (Homo sapiens, UniProt Q16288).
T1 construct: purchased Invitrogen
The assay can be described thus: HTRF KinEASE kinase assay, recombinant Human TRK enzyme, TrkC (NTRK3). Particulars: NTRK3 10 nM, read-out: TrkC Enz. How it is done: (§1) A suitable assay for determining the Trk inhibition activity of a compound is detailed herein below.
(§2) To determine the IC50 of small molecule compounds for the Human TRK receptors, HTRF® KinEASE™ kinase kits from Cisbio were used. Assays were carried out in low volume, black 384-well plates.
(§3) Recombinant Human TRK enzymes (Invitrogen) were incubated in the presence or absence of the compound (11-point dose response with FAC as 10 μM) for 30 minutes at 23° C. Kinase reaction was started by addition of ATP to a mixture containing the enzyme (NTRK1-4 nM, NTRK2-1 nM, NTRK3-10 nM) and substrate (1 μM). Kinase reaction was allowed to carry on for 10 to 45 minutes at 23° C. after which it was stopped by addition of the detection mix (supplied by vendor) containing EDTA, TK-Ab-labelled with Eu^3+-cryptate (1:200 dilutions) and Streptavidin-XL665 (250 nM). Assay plates were incubated in this detection mix for 60 minutes at 23° C. The resulting TR-FRET signal, calculated as the fluorescence ratio at 665/620 nm, was read on an Envision and was proportional to the level of phosphorylation of the peptide in the presence or absence of the compound. The uniformity of the plates were assured with Z′ value [1−{3*(SDHPE+SDZPE)/(ZPE−HPE)}]. The percent (%) effect i.e. Inhibition of compound was calculated in comparison to the signal in the positive (HPE) and negative control (ZPE) wells within each assay plate. The endpoint value % Inhibition for the Standard compound was evaluated in each experiment as a quality control measure. IC50 was determined by plotting compound inhibition at respective dose in Graphpad prism5 using four parameter logistic curve fit.
On the technique in general: Time-resolved FRET reads energy transfer from a long-lived donor to a nearby acceptor.

The target of a further assay is T2, TrkB (Homo sapiens, UniProt Q16620).
T2 construct: purchased Invitrogen
T2 sequence (Q16620 32-822): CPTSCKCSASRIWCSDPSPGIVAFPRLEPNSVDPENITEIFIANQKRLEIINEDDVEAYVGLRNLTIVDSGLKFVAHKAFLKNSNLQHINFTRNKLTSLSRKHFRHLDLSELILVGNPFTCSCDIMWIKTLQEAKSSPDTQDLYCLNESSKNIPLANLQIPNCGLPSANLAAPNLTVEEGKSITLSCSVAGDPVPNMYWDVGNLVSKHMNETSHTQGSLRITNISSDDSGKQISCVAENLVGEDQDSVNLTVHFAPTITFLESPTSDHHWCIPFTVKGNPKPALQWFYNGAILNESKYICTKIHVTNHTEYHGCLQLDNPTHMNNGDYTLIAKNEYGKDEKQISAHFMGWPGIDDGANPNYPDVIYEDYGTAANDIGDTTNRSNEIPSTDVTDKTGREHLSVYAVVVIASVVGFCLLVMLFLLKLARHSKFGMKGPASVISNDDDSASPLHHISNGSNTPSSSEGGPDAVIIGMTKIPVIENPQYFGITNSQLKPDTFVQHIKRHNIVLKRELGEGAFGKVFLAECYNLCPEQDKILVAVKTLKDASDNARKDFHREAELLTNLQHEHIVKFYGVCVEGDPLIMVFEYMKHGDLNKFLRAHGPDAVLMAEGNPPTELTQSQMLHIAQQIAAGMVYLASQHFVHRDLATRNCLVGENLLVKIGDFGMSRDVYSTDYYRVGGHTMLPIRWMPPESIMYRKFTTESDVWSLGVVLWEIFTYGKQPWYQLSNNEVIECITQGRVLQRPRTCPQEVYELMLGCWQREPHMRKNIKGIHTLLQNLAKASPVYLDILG
Put plainly: HTRF KinEASE kinase assay, recombinant Human TRK enzyme, TrkB (NTRK2). Conditions: NTRK2 1 nM, read-out: TrkB Enz. As for the experimental part:
as §1, §2, §3

The target in another assay is T3, TrkA (Homo sapiens, UniProt P04629).
T3 construct: purchased Invitrogen
T3 sequence (P04629 33-796): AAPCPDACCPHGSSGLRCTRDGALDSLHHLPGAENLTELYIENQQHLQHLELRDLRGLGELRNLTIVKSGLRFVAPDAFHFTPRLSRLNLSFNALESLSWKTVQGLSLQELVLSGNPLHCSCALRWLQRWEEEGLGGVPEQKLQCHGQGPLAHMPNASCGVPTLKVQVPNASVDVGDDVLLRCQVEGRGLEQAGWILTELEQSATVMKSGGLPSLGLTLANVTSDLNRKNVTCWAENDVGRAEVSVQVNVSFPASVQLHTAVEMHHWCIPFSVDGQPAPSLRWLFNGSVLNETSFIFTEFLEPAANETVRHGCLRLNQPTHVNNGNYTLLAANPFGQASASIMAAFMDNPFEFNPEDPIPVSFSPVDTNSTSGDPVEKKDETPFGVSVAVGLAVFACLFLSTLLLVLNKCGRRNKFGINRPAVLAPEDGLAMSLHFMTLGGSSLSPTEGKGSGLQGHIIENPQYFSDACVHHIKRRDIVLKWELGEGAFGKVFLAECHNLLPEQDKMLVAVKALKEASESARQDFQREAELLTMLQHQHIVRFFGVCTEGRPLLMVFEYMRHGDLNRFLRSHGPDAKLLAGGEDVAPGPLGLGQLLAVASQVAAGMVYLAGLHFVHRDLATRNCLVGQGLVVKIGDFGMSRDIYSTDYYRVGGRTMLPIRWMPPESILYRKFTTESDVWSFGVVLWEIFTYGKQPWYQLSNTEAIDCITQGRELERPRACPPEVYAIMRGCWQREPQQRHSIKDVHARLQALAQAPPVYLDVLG
Put plainly: HTRF KinEASE kinase assay, recombinant Human TRK enzyme, TrkA (NTRK1). Conditions: NTRK1 4 nM, read-out: TrkA Enz. As for the experimental part: as §1, §2, §3

T1 sequence (Q16288 32-839): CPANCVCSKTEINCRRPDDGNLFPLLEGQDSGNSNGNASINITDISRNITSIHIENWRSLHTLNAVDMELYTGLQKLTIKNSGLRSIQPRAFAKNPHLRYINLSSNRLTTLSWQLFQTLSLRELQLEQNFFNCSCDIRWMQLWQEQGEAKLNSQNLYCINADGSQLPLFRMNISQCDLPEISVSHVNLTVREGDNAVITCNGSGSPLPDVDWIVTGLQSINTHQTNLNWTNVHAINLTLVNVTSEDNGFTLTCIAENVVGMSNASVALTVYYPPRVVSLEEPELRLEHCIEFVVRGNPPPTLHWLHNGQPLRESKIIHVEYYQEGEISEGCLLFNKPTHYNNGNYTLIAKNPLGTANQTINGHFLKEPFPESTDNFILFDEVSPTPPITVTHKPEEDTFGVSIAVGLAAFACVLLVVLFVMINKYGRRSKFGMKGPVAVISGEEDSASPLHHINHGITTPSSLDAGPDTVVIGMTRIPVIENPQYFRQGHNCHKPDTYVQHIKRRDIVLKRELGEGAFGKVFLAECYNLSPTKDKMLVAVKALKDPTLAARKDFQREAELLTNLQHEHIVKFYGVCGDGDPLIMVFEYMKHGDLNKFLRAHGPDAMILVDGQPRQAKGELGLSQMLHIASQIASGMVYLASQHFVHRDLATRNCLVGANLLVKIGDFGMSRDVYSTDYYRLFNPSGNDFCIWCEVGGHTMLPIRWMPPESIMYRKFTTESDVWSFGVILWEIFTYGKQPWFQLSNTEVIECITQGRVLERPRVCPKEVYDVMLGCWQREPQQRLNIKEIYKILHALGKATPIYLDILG

As for `CSc1cc(F)cc([C@H]2C[C@H](F)CN2c2ccc3ncc(C(=O)N[C@H]4CCN(C(=O)c5cccc(O)c5)C4)n3n2)c1` [Example 27, 6-[(2R,4S)-4-fluoro-2-[3-fluoro-5-(methylsulfanyl)phenyl]pyrrolidin-1-yl]-N-[(3S)-1-(3-hydroxybenzoyl)pyrrolidin-3-yl]imidazo[1,2-b]pyridazine-3-carboxamide], the values for the IC50 on TrkC, on TrkB and at TrkA were 1.87 nM, 1.01 nM and 1.34 nM, respectively.

Turning to `CSc1cc(F)cc([C@H]2C[C@H](F)CN2c2ccc3ncc(C(=O)N[C@@H]4COCCN(Cc5ccc(F)c(O)c5)C4)n3n2)c1` (single isomer, unassigned) [Example 24], the IC50 came out at 17.3 nM at TrkC, 23.6 nM on TrkB and 6.9 nM on TrkA.

As to `CSc1cc(F)cc([C@H]2C[C@H](F)CN2c2ccc3ncc(C(=O)N[C@H]4CCN(Cc5cccc(O)c5)C4)n3n2)c1` [Example 17, 6-[(2R,4S)-4-fluoro-2-[3-fluoro-5-(methylsulfanyl)phenyl]pyrrolidin-1-yl]-N-[(3S)-1-[(3-hydroxyphenyl)methyl]pyrrolidin-3-yl]imidazo[1,2-b]pyridazine-3-carboxamide], the IC50 is 4.62 nM on TrkC, 5.04 nM on TrkB and 2.41 nM at TrkA.

Take `CSc1ccc(F)cc1[C@H]1C[C@H](F)CN1c1ccc2ncc(C(=O)NC3CN(Cc4cccc(O)c4)C3)n2n1` [Example 5, 6-[(2R,4S)-4-fluoro-2-[5-fluoro-2-(methylsulfanyl)phenyl]pyrrolidin-1-yl]-N-{1-[(3-hydroxyphenyl)methyl]azetidin-3-yl}imidazo[1,2-b]pyridazine-3-carboxamide]: the IC50 on TrkC worked out at 2.11 nM; on TrkB it was 1.19 nM; at TrkA, 1.9 nM.

Take `CSc1ccc(F)cc1[C@H]1C[C@H](F)CN1c1ccc2ncc(C(=O)N[C@H]3CCN(Cc4ccc(F)c(O)c4)C3)n2n1` [Example 11, 6-[(2R,4S)-4-fluoro-2-[5-fluoro-2-(methylsulfanyl)phenyl]pyrrolidin-1-yl]-N-[(3S)-1-[(4-fluoro-3-hydroxyphenyl)methyl]pyrrolidin-3-yl]imidazo[1,2-b]pyridazine-3-carboxamide]: the IC50 on TrkC was determined as 2.46 nM; at TrkB it was 2.27 nM; on TrkA, 1.57 nM.

Consider `CSc1cc(F)cc([C@H]2C[C@H](F)CN2c2ccc3ncc(C(=O)N[C@H]4CCN(Cc5ccc(F)c(O)c5)C4)n3n2)c1` [Example 18, 6-[(2R,4S)-4-fluoro-2-[3-fluoro-5-(methylsulfanyl)phenyl]pyrrolidin-1-yl]-N-[(3S)-1-[(4-fluoro-3-hydroxyphenyl)methyl]pyrrolidin-3-yl]imidazo[1,2-b]pyridazine-3-carboxamide], for which the IC50 was 5.19 nM at TrkC, 7.82 nM on TrkB and 2.87 nM on TrkA.

For the molecule `CSc1cc(F)cc([C@H]2C[C@H](F)CN2c2ccc3ncc(C(=O)NC4CN(Cc5ccc(F)c(O)c5)C4)n3n2)c1` [Example 19, 6-[(2R,4S)-4-fluoro-2-[3-fluoro-5-(methylsulfanyl)phenyl]pyrrolidin-1-yl]-N-{1-[(4-fluoro-3-hydroxyphenyl)methyl]azetidin-3-yl}imidazo[1,2-b]pyridazine-3-carboxamide], the IC50 on TrkC was 2.99 nM; at TrkB it was 3.04 nM; on TrkA it was 2.46 nM.

On to `CSc1ccc(F)cc1[C@H]1C[C@H](F)CN1c1ccc2ncc(C(=O)NCc3cccc(O)c3)n2n1` [Example 7, 6-[(2R,4S)-4-fluoro-2-[5-fluoro-2-(methylsulfanyl)phenyl]pyrrolidin-1-yl]-N-[(3-hydroxyphenyl)methyl]imidazo[1,2-b]pyridazine-3-carboxamide], for which the IC50 was 1.25 nM at TrkC, 0.49 nM on TrkB and 0.9 nM on TrkA.

As for `CSc1cc(F)cc([C@H]2C[C@H](F)CN2c2ccc3ncc(C(=O)NCc4ccc(F)c(O)c4)n3n2)c1` [Example 26, 6-[(2R,4S)-4-fluoro-2-[3-fluoro-5-(methylsulfanyl)phenyl]pyrrolidin-1-yl]-N-[(4-fluoro-3-hydroxyphenyl)methyl]imidazo[1,2-b]pyridazine-3-carboxamide], the IC50 at TrkC was found to be 2.97 nM; at TrkB it was 1.85 nM; at TrkA, 1.87 nM.

In the case of `CSc1ccc(F)cc1[C@H]1C[C@H](F)CN1c1ccc2ncc(C(=O)N[C@H]3CCN(Cc4cccc(O)c4)C3)n2n1` [Example 8, 6-[(2R,4S)-4-fluoro-2-[5-fluoro-2-(methylsulfanyl)phenyl]pyrrolidin-1-yl]-N-[(3S)-1-[(3-hydroxyphenyl)methyl]pyrrolidin-3-yl]imidazo[1,2-b]pyridazine-3-carboxamide], the values for the IC50 on TrkC, on TrkB and on TrkA were 1.64 nM, 1.51 nM and 0.79 nM, respectively.

Take `CSc1cc(F)cc([C@H]2C[C@H](F)CN2c2ccc3ncc(C(=O)NC4CCN(Cc5cccc(O)c5)CC4)n3n2)c1` [Example 22, 6-[(2R,4S)-4-fluoro-2-[3-fluoro-5-(methylsulfanyl)phenyl]pyrrolidin-1-yl]-N-{1-[(3-hydroxyphenyl)methyl]piperidin-4-yl}imidazo[1,2-b]pyridazine-3-carboxamide]: the IC50 came out at 2.13 nM at TrkC, 2.01 nM on TrkB and 1.4 nM at TrkA.

Take `CSc1ccc(F)cc1[C@H]1C[C@H](F)CN1c1ccc2ncc(C(=O)NC3CCN(Cc4ccc(F)c(O)c4)CC3)n2n1` [Example 6, 6-[(2R,4S)-4-fluoro-2-[5-fluoro-2-(methylsulfanyl)phenyl]pyrrolidin-1-yl]-N-{1-[(4-fluoro-3-hydroxyphenyl)methyl]piperidin-4-yl}imidazo[1,2-b]pyridazine-3-carboxamide]: the IC50 on TrkC stood at 1.56 nM; at TrkB, 0.81 nM; on TrkA it was 1.47 nM.

Take `CSc1cc(F)cc([C@H]2C[C@H](F)CN2c2ccn3ncc(C(=O)NC4CCN(Cc5cccc(O)c5)CC4)c3n2)c1` [Example 31, 5-[(2R,4S)-4-fluoro-2-[3-fluoro-5-(methylsulfanyl)phenyl]pyrrolidin-1-yl]-N-{1-[(3-hydroxyphenyl)methyl]piperidin-4-yl}pyrazolo[1,5-a]pyrimidine-3-carboxamide]: the IC50 at TrkC came out at 1.38 nM; on TrkB, 0.86 nM; at TrkA it was 1.38 nM.

With `CSc1ccc(F)cc1[C@H]1CCCN1c1ccc2ncc(C(=O)NC3CN(Cc4ccc(F)c(O)c4)C3)n2n1` [Example 1, 6-[(2R)-2-[5-fluoro-2-(methylsulfanyl)phenyl]pyrrolidin-1-yl]-N-{1-[(4-fluoro-3-hydroxyphenyl)methyl]azetidin-3-yl}imidazo[1,2-b]pyridazine-3-carboxamide], the IC50 at TrkC was determined as 2.81 nM; on TrkB, 2.06 nM; on TrkA it was 1.77 nM.

In the case of `CCCCOC(=O)c1cccc(CN2CC[C@H](NC(=O)c3cnc4ccc(N5C[C@@H](F)C[C@@H]5c5cc(F)ccc5SC)nn34)C2)c1` [Example 12, Butyl 3-{[(3S)-3-{6-[(2R,4S)-4-fluoro-2-[5-fluoro-2-(methylsulfanyl)phenyl]pyrrolidin-1-yl]imidazo[1,2-b]pyridazine-3-amido}pyrrolidin-1-yl]methyl}benzoate], the IC50 at TrkC was determined as 10.9 nM; on TrkB, 10.3 nM; on TrkA, 3.82 nM.

For `CSc1ccc(F)cc1[C@H]1C[C@H](F)CN1c1ccc2ncc(C(=O)NC3CN(Cc4ccc(F)c(O)c4)C3)n2n1` [Example 4, 6-[(2R,4S)-4-fluoro-2-[5-fluoro-2-(methylsulfanyl)phenyl]pyrrolidin-1-yl]-N-{1-[(4-fluoro-3-hydroxyphenyl)methyl]azetidin-3-yl}imidazo[1,2-b]pyridazine-3-carboxamide], the IC50 at TrkC was 1.93 nM; at TrkB, 1.05 nM; on TrkA, 1.75 nM.
